We go through six molecules from patent publication US20050282225A1, “Quantitative binding assays using green fluorescent protein as a label” (priority 1998, published 2005).

Where no end group is shown, it is not given here.

The test system of one assay is anti-octapeptide M2 monoclonal antibody. The experiment in a line: heterogeneous competitive immunoassay with immobilized M2 antibody and octapeptide-GFP conjugate, selectivity study. The assay is classed as binding. Conditions: sequential incubation 25 min + 25 min, supernatant fluorescence (FIG. 10). The procedure: A dose-response curve was constructed by incubating 200 μL of a solution of different concentrations of the octapeptide with 200 μL of a 140 μg/mL suspension of the immobilized antibody and 90 μL of 1.1×10^−8 M of octapeptide-GFP conjugate and 1.510 mL of PBS buffer.
The incubations were performed in a sequential manner. Initially, the octapeptide was incubated with the beads for 25 min. Then, the tubes were centrifuged at 2000×g for 15 min, the supernatant was removed, and the beads were washed three times with PBS. PBS (1.710 mL) and the octapeptide-GFP conjugate were added, and the mixture was incubated for an additional 25 min at room temperature. The beads were then centrifuged again as described, and 1.7 mL of the supernatant was transferred to plastic cuvettes for measurement of fluorescence emission at 508 nm. The selectivity of the assay was evaluated by constructing a dose-response curve for rev-octapeptide, an octapeptide with the amino acids of the octapeptide in the reverse order.
“KDDDDKYD [rev-octapeptide, octapeptide with the amino acids of the octapeptide in the reverse order]”: the “response in dose-response curve (displacement of octapeptide-GFP from M2 antibody)” value is recorded as “essentially no response”.

In another assay the target is Avidin (Gallus gallus, UniProt P02701).
Avidin, sequence (P02701 25-152): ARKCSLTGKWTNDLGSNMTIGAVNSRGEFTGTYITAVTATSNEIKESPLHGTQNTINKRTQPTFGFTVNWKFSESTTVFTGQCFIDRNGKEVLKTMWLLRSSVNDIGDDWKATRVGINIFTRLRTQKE
Test: not given
The conditions noted are these: association (affinity) constant of the binding pair substance: Avidin; cited from earlier work.
In the case of `O=C(O)CCCCC1SCC2NC(=S)NC21` (stereo not drawn) [2-thiobiotin], the Ka is on record as 10^13 M^−1.
On to `COC(=O)CCCCC1SCC2NC(=O)N(C(=O)OC)C21` (stereo not drawn) [3′-N-methoxy-carbonylbiotin methyl ester], for which the Ka is given as 10^9 M^−1.
Turning to `O=C(O)CCCC[C@@H]1SC[C@@H]2NC(=O)N[C@@H]21` [Biotin], the Ka is reported as 10^15 M^−1.
For the molecule `C[C@@H]1NC(=O)N[C@@H]1CCCCCC(=O)O` [Dethiobiotin], the Ka is 10^13 M^−1.
For the molecule `N=C1N[C@H]2[C@H](CS[C@H]2CCCCC(=O)O)N1` [Iminobiotin], the Ka is on record as 10^11 M^−1.
